The values below come from patent publication EP3212201B1, “NUCLEOSIDE KINASE INHIBITORS” (BCI Pharma, priority 2014, dated 2016).

Chain of PRKCB1 (PKC beta I) (P05771 whole entry, species assumed): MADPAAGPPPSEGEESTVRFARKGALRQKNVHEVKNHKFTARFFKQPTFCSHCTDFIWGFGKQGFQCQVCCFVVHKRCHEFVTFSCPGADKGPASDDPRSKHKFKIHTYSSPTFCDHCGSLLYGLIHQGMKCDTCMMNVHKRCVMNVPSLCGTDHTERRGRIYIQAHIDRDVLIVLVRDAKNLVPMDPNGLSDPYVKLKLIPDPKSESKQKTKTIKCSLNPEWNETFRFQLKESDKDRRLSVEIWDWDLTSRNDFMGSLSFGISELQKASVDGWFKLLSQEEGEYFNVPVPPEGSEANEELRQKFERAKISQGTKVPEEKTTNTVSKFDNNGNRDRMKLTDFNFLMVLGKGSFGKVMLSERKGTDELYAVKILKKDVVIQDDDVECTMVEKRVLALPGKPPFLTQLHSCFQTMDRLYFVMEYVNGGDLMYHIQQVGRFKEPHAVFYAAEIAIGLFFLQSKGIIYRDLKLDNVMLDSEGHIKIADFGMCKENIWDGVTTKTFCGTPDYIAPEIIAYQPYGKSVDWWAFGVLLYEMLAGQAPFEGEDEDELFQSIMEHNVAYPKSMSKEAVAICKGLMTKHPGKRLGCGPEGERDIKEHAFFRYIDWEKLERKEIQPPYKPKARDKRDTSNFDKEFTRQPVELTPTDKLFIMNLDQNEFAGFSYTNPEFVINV

The assay addresses PRKCB1 (PKC beta I) (Homo sapiens, UniProt P05771). In words: FRET-based coupled-enzyme protein kinase inhibition assay. The format is biochemical. Conditions: compound at 10 µM, 1% DMSO. The protocol:
A biochemical assay was then performed in order to measure the protein kinase inhibition. It employed a fluorescence-based coupled-enzyme format and was based on the differential sensitivity of phosphorylated and non-phosphorylated peptides to proteolytic cleavage.
Peptide substrates were labeled with two fluorophores. The two fluorohores used were coumarin (donor) and fluorecein (acceptor), and each of the peptides was bearing one at one end, and one at the other end, which made up fluorescence resonance energy transfer (FRET) pair peptides.
In a primary reaction, the FRET-peptides were submitted to a phosphorylation reaction, in which one of adenosine triphosphate (ATP)'s phosphate groups was transferred to the peptide in the presence of kinase. When kinase inhibition takes place, the peptide will not be phosphorylated. In a secondary reaction, both the phosphorylated FRET-peptides and the non-phosphorylated FRET-peptides were reacted with a development reagent. It has been observed that non-phosphorylated FRET-peptides were cleaved, whereas the phosphorylted FRET-peptide remained intact.
Cleavage disrupts FRET between the donor (i.e., coumarin) and acceptor (i.e., fluorescein) fluorophores on the FRET-peptide, whereas uncleaved, phosphorylated FRET-peptides maintain FRET. A ratiometric method, which calculates the Emission Ratio of donor emission to acceptor emission after excitation of the donor fluorophore at 400 nm, is used to quantitate reaction progress, as shown in the equation below. [formula]
A significant benefit of this ratiometric method for quantitating reaction progress is the elimination of well-to-well variations in FRET-peptide concentration and signal intensities. As a result, the assay yields very high Z'factor values (>0.7) at a low percent phosphorylation. Both cleaved and uncleaved FRET-peptides contribute to the fluorescence signals and therefore to the Emission Ratio. The extent of phosphorylation of the FRET-peptide can be calculated from the Emission Ratio. The Emission Ratio will remain low if the FRET-peptide is phosphorylated (i.e., no kinase inhibition) and will be high if the FRET-peptide is non-phosphorylated (i.e., kinase inhibition).
The Test Compounds were screened in 1% DMSO. For 10 point titrations, 3-fold serial dilutions were prepared from the starting concentration.
All Peptide/Kinase Mixtures were diluted to a 2X working concentration in the appropriate Kinase Buffer (50 mM HEPES pH 7.5, 0.01% BRIJ-35, 10 mM MgCl2, 1 mM […]).
All ATP Solutions were diluted to a 4X working concentration in Kinase Buffer. ATP Km apparent was previously determined using another assay.
The Development Reagent was diluted in Development Buffer. For 5 mL 10X Novel PKC Lipid Mix, 10X Novel PKC Lipid Mix being composed of 2 mg/ml Phosphatidyl Serine, 0.2 mg/ml DAG in 20 mM HEPES, pH 7.4, 0.3% CHAPS, 10 mg of Phosphatidyl Serine (Avanti Polar Lipids Part# 8400032C or 840039C) and 1 mg DAG (Avanti Polar Lipids Part# 800811C) were added to a glass tube.
The chloroform was removed from the lipid mixture by evaporating to a clear, thin film under a stream of nitrogen. Continuous rotation of the tube, at an angle to ensure maximum surface area of the lipid solution, has promoted the thinnest film. 5mL resuspension buffer, 20 mM HEPES, 0.3% CHAPS, pH 7.4, were added to the dried lipid mix, which was then gently heated to 50-60°C for 1-2 minutes and vortexed in short intervals until the lipids are dissolved to a clear or slightly hazy solution. The lipids were typically in solution after 2-3 heat-vortex cycles. The solution was cooled to room temperature, aliquoted into single use volumes and stored at -20 °C.
2.5 µL - 4X Test Compound or 100 nL 100X plus 2.4 µL kinase buffer were mixed together with 2. 5 µL - 2X Peptide/Kinase Mixture and 3. 2.5 µL - 4X ATP Solution.
The solution was plate-shaked for 30 seconds, then incubated 60 minutes at room temperature for kinase reaction. […]
As for `Nc1ncnc2c1ncn2[C@@H]1O[C@H](COC(=O)NCCCc2nc3ccccc3[nH]2)[C@@H](O)[C@H]1O` [Compound C1], the inhibition at 10 µM was determined as 6%.

Take `C[C@@H](NC(=O)OC[C@H]1O[C@@H](n2cnc3c(N)ncnc32)[C@H](O)[C@@H]1O)c1ccc(Cl)cc1` [Compound C4]: the inhibition at 10 µM is -1%.

For `Nc1ncnc2c1ncn2[C@@H]1O[C@H](COC(=O)NC[C@H](O)CO)[C@@H](O)[C@H]1O` [Compound C8], the inhibition at 10 µM is -11%.

Consider `Nc1ncnc2c1ncn2[C@@H]1O[C@H](COC(=O)N2CCC[C@H]2CO)[C@@H](O)[C@H]1O` [Compound C9], for which the inhibition at 10 µM was -6%.

On to `Nc1ncnc2c1ncn2[C@@H]1O[C@H](COC(=O)N[C@@H]2CCN(Cc3ccccc3)C2)[C@@H](O)[C@H]1O` [Compound C10], for which the inhibition at 10 µM was 5%.

As to `Nc1ncnc2c1ncn2[C@@H]1O[C@H](COC(=O)N2CCN(Cc3ccccc3)CC2CO)[C@@H](O)[C@H]1O` (stereo partly shown) [Compound C13], the inhibition at 10 µM was 7%.

`CC(C)N1CCC(NC(=O)OC[C@H]2O[C@@H](n3cnc4c(N)ncnc43)[C@H](O)[C@@H]2O)CC1` [Compound C19]: the inhibition at 10 µM was determined as 4%.

For the molecule `Nc1ncnc2c1ncn2[C@@H]1O[C@H](COC(=O)NCCN2CCCC2=O)[C@@H](O)[C@H]1O` [Compound C22], the inhibition at 10 µM is -8%.

Take `Nc1ncnc2c1ncn2[C@@H]1O[C@H](COC(=O)N2CCN(CCc3ccccc3)CC2)[C@@H](O)[C@H]1O` [Compound C26]: the inhibition at 10 µM came to 0%.

As to `CN1CCN(CCNC(=O)OC[C@H]2O[C@@H](n3cnc4c(N)ncnc43)[C@H](O)[C@@H]2O)CC1` [Compound C46], the inhibition at 10 µM is 0%.

`Nc1ncnc2c1ncn2[C@@H]1O[C@H](COC(=O)N2CCC(Cc3ccc(F)cc3)C2)[C@@H](O)[C@H]1O` (stereo partly shown) [Compound C66]: the inhibition at 10 µM is 1%.

In the case of `N#CCCN1CCN(C(=O)OC[C@H]2O[C@@H](n3cnc4c(N)ncnc43)[C@H](O)[C@@H]2O)CC1` [Compound C70], the inhibition at 10 µM is -5%.

For the molecule `CN(C)CCNC(=O)OC[C@H]1O[C@@H](n2cnc3c(N)ncnc32)[C@H](O)[C@@H]1O` [Compound C85], the inhibition at 10 µM is -1%.

In the case of `Nc1ncnc2c1ncn2[C@@H]1O[C@H](COC(=O)N2CCN(C(=O)N3CCOCC3)CC2)[C@@H](O)[C@H]1O` [Compound C89], the inhibition at 10 µM is -6%.

For `CS(=O)(=O)N1CC2(CCN(C(=O)OC[C@H]3O[C@@H](n4cnc5c(N)ncnc54)[C@H](O)[C@@H]3O)CC2)c2ccccc21` [Compound C98], the inhibition at 10 µM was -1%.

As for `Nc1ncnc2c1ncn2[C@@H]1O[C@H](COC(=O)N2CCS(=O)(=O)CC2)[C@@H](O)[C@H]1O` [Compound C100], the inhibition at 10 µM stood at 1%.

As usually defined, the inhibition is the relative decrease from the control value, in per cent.
